From article PMC4893161, “The Dynamic Localization of Cytoplasmic Dynein in Neurons Is Driven by Kinesin-1” (Neuron, 2016)

What was measured:
[1] = test system: KLC1 TPR domain (KLC1^TPR); experiment: Fluorescence polarization binding to KLC1 TPR domain; settings: 150 mM NaCl, pH 7.5, 20 °C
Procedure: (§1) Measurements were performed as previously described ([Pernigo et al., 2013]) with modifications as listed in Supplemental Experimental Procedures. […]
(§2) minutes with the addition of 15 µl of washed pre-equilibrated Protein-G Dynabeads. Beads were washed three times in IP buffer and then boiled in 50 µl 1X SDS-loading buffer. Samples were separated by SDS-PAGE and transferred to immobilon-PVDF membrane (Millipore) for western blotting. Primary antibodies listed above. HRP conjugated secondary antibodies were from Jackson. […]
(§3) Fluorescence polarization measurements […]
(§4) […] All fluorescence polarization (FP) measurements were carried out on a BMG Labtech PolarStar Omega plate reader at 20 °C by incubating 300 nM TAMRA-labeled peptides with His6-tagged KLC2TPR at increasing concentrations in 25 mM Hepes pH 7.5, 150 mM NaCl, 5 mM β-mercaptoethanol. […]
(§5) Four mouse brains were homogenized in 16 ml of ice cold Homogenization buffer (10 mM HEPES pH 7.4, 0.32 M sucrose, 2 mM EDTA plus protease inhibitors) then centrifuged at 1000 g for 15 min at 4 °C to form supernatant ‘S1’ and pellet ‘P1’. […] Samples of S1-P3 were taken at each stage and protein content measured by BCA assay and normalized to 1 mg/ml with 10 µg loaded on gels. […] Protein concentration and turbidity of fractions was analyzed at 280 and 340 nm respectively in a SynergyMx plate reader (BioTek). […]

[2] = target: T1, KLC2 TPR domain (KLC2^TPR) (Mus musculus, UniProt O88448); experiment: Fluorescence polarization binding to KLC2 TPR domain; settings: 150 mM NaCl, pH 7.5, 20 °C
T1 construct: amino acids V218 to K480) was amplified from a mouse; made in house; host or cells: E. coli (inferred from the pET28a vector
Procedure: as §1, §2, §3, §4, §5

T1 sequence (O88448 217-478 limits assumed): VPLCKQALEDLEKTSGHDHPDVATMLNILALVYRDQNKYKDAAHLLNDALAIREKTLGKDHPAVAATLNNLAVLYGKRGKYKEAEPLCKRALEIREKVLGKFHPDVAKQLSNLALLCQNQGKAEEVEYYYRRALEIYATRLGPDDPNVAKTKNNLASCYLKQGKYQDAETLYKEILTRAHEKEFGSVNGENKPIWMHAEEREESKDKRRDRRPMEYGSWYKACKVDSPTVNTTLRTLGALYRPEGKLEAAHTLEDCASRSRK

- interaction with KLC1 TPR [1]: did not show an interaction
- interaction with KLC2 TPR [2]: did not show an interaction
Substance: TAMRA-TRTLQWDTDPS [WD2^pept, peptide centered on the second tryptophan motif of DIC1]
